According to paper PMC3566180, “Glucose 6P Binds and Activates HlyIIR to Repress Bacillus cereus Haemolysin hlyII Gene Expression” (PLoS ONE, 2013):
pKd: −log10 of the molar value.

Columns and labels:
HlyIIR = target: T1, HlyIIR (Bacillus thuringiensis, UniProt A0A1W6WQG6); experiment: isothermal titration calorimetry (ITC200, […]°C, […] purified HlyIIR, N = […]); assay type: binding
T1 construct: gene CAB88_17715; hlyIIR gene amplified from the Bt407 chromosome, GST-tagged (pGEX6P1), tag removed with Precission protease

[1] = system: HlyIIR (Bacillus cereus Bt407); experiment: ITC; conditions: ITC200, 20 C, protein storage buffer (composition and pH not given), 28 uM HlyIIR in cell, 1.25 uM DNA injected (20 x 2 ul)

T1 sequence (A0A1W6WQG6 entry or part of it): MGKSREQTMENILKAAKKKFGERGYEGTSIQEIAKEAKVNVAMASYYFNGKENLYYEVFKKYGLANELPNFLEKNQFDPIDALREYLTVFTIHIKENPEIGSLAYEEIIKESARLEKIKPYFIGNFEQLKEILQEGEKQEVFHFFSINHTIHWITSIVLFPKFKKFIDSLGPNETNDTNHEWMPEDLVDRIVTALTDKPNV

| Molecule | pKd (HlyIIR) | pKd [1] |
| --- | --- | --- |
| O=P(O)(O)OC[C@H]1OC(O)[C@H](O)[C@@H](O)[C@@H]1O (some centres unmarked) [glucose 6P] | ~4.97 |  |
| hlyII promoter fragment (220 bp) |  | 6.96 |
